# Measured values reported in patent publication US11214803B2, “Modulators of YAP1 expression” (Ionis Pharmaceuticals, Inc., priority 2019, dated 2022).
# Strand notation (5' to 3'): a small letter for the sugar, then the base; units joined by * are phosphorothioate-linked, units joined directly phosphodiester-linked; [ ] holds rarer units or linkages, { } end groups; capitals alone tell only the bases. k = constrained ethyl (cEt); [5mC] = 5-methylcytosine; d = 2'-deoxy (DNA)
# How the values were obtained:
# Yap1 mRNA [1] = experiment: Antisense inhibition of human Yap1 in A-431 cells by cEt gapmers, single dose (Example 2, RTS4814); format: cell-based; conditions: 3-10-3 cEt gapmers targeting SEQ ID NO.: 1, and 2
# How it was run: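 Single-dose knockdown screen of 3-10-3 cEt phosphorothioate gapmers at 2,000 nM added by free uptake to A-431 cells. After roughly 48 h, RNA was isolated and Yap1 transcript measured by RT-qPCR, with results given as % UTC.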
# Yap1 mRNA [2] = experiment: Dose-dependent inhibition of human Yap1 in A-431 cells (Example 8, 10,000 cells per well, RTS4814); format: cell-based; conditions: free uptake, approximately 48 hours, RTS4814; for Yap1 mRNA, % UTC: A-431 cells, 10,000 cells per well; for IC50: A-431 cells, linear regression on log/linear plot
# How it was run: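 A-431 cells (10,000/well) dosed with modified oligonucleotides by free uptake; Yap1 mRNA measured ~48 h later with primer-probe set RTS4814, normalized to total RNA (RIBOGREEN). Values are % of untreated control; IC50 from linear regression on log/linear plot.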
# [3] = Yap1 mRNA as percent of untreated control, A-431 cells, Table 31
# [4] = Table 33, Yap1 mRNA, percent of untreated control
substance,measurement,setting,value
1074609 (DNA k[5mC]*kT*kA*dG*dT*dT*dA*d[5mC]*dA*dT*d[5mC]*dA*dT*k[5mC]*kT*k[5mC]) [compound 1074609],YAP1 (% UTC),Yap1 mRNA [1]; [3],8 % UTC
same,"Yap1 mRNA, % UTC",Yap1 mRNA [2]; 31.3 nM,65 % UTC
same,"Yap1 mRNA, % UTC",Yap1 mRNA [2]; 125.0 nM,29 % UTC
same,"Yap1 mRNA, % UTC",Yap1 mRNA [2]; 500.0 nM,15 % UTC
same,"Yap1 mRNA, % UTC",Yap1 mRNA [2]; 2000.00 nM,11 % UTC
same,IC50,Yap1 mRNA [2],100 nM
1074801 (kA*k[5mC]*kA*dA*dA*dT*dA*dG*dT*dG*d[5mC]*dT*dT*kT*kG*kG; antisense) [compound 1074801],YAP1 (% UTC),Yap1 mRNA [1]; [3],8 % UTC
same,"Yap1 mRNA, % UTC",Yap1 mRNA [2]; 31.3 nM,76 % UTC
same,"Yap1 mRNA, % UTC",Yap1 mRNA [2]; 125.0 nM,41 % UTC
same,"Yap1 mRNA, % UTC",Yap1 mRNA [2]; 500.0 nM,19 % UTC
same,"Yap1 mRNA, % UTC",Yap1 mRNA [2]; 2000.00 nM,12 % UTC
same,IC50,Yap1 mRNA [2],100 nM
1075699 (kG*kA*kT*dT*dT*dA*dT*dA*d[5mC]*dT*d[5mC]*dA*dG*kG*kT*kT; antisense) [compound 1075699],YAP1 (% UTC),Yap1 mRNA [1]; [4],4 % UTC
same,"Yap1 mRNA, % UTC",Yap1 mRNA [2]; 31.3 nM,26 % UTC
same,"Yap1 mRNA, % UTC",Yap1 mRNA [2]; 125.0 nM,6 % UTC
same,"Yap1 mRNA, % UTC",Yap1 mRNA [2]; 500.0 nM,3 % UTC
same,"Yap1 mRNA, % UTC",Yap1 mRNA [2]; 2000.00 nM,2 % UTC
same,IC50,Yap1 mRNA [2],< 20 nM
1076467 (kG*kT*kA*dT*dT*dT*dA*dG*dA*dG*d[5mC]*dT*dT*kA*kA*kG; antisense) [compound 1076467],YAP1 (% UTC),Yap1 mRNA [1]; [4],5 % UTC
same,"Yap1 mRNA, % UTC",Yap1 mRNA [2]; 31.3 nM,24 % UTC
same,"Yap1 mRNA, % UTC",Yap1 mRNA [2]; 125.0 nM,6 % UTC
same,"Yap1 mRNA, % UTC",Yap1 mRNA [2]; 500.0 nM,3 % UTC
same,"Yap1 mRNA, % UTC",Yap1 mRNA [2]; 2000.00 nM,2 % UTC
same,IC50,Yap1 mRNA [2],< 20 nM
1074451 (kG*kA*k[5mC]*dT*dA*dA*dT*dG*dA*dT*dA*dG*d[5mC]*kA*k[5mC]*kT; antisense) [compound 1074451],YAP1 (% UTC),Yap1 mRNA [1]; [4],6 % UTC
same,"Yap1 mRNA, % UTC",Yap1 mRNA [2]; 31.3 nM,63 % UTC
same,"Yap1 mRNA, % UTC",Yap1 mRNA [2]; 125.0 nM,26 % UTC
same,"Yap1 mRNA, % UTC",Yap1 mRNA [2]; 500.0 nM,8 % UTC
same,"Yap1 mRNA, % UTC",Yap1 mRNA [2]; 2000.00 nM,4 % UTC
same,IC50,Yap1 mRNA [2],40 nM
1076049 (kA*kG*kA*dT*dT*dA*dA*dA*dG*dG*d[5mC]*dT*dG*kG*kA*kA; antisense) [compound 1076049],YAP1 (% UTC),Yap1 mRNA [1]; [3],4 % UTC
same,"Yap1 mRNA, % UTC",Yap1 mRNA [2]; 31.3 nM,61 % UTC
same,"Yap1 mRNA, % UTC",Yap1 mRNA [2]; 125.0 nM,16 % UTC
same,"Yap1 mRNA, % UTC",Yap1 mRNA [2]; 500.0 nM,13 % UTC
same,"Yap1 mRNA, % UTC",Yap1 mRNA [2]; 2000.00 nM,6 % UTC
same,IC50,Yap1 mRNA [2],< 20 nM
1076465 (kG*k[5mC]*kT*dT*dA*dA*dG*dG*dA*dA*dT*dA*dT*kA*k[5mC]*kA; antisense) [compound 1076465],YAP1 (% UTC),Yap1 mRNA [1]; [3],5 % UTC
same,"Yap1 mRNA, % UTC",Yap1 mRNA [2]; 31.3 nM,72 % UTC
same,"Yap1 mRNA, % UTC",Yap1 mRNA [2]; 125.0 nM,32 % UTC
same,"Yap1 mRNA, % UTC",Yap1 mRNA [2]; 500.0 nM,14 % UTC
same,"Yap1 mRNA, % UTC",Yap1 mRNA [2]; 2000.00 nM,7 % UTC
same,IC50,Yap1 mRNA [2],100 nM
1074419 (kA*kT*kT*d[5mC]*dT*dT*dT*dA*dG*dA*dG*d[5mC]*d[5mC]*kA*kA*k[5mC]; antisense) [compound 1074419],YAP1 (% UTC),Yap1 mRNA [1]; [4],4 % UTC
same,"Yap1 mRNA, % UTC",Yap1 mRNA [2]; 31.3 nM,48 % UTC
same,"Yap1 mRNA, % UTC",Yap1 mRNA [2]; 125.0 nM,15 % UTC
same,"Yap1 mRNA, % UTC",Yap1 mRNA [2]; 500.0 nM,5 % UTC
same,"Yap1 mRNA, % UTC",Yap1 mRNA [2]; 2000.00 nM,3 % UTC
same,IC50,Yap1 mRNA [2],< 20 nM
1074578 (DNA kG*k[5mC]*kT*dT*dA*dT*dT*dT*d[5mC]*dT*dG*dT*d[5mC]*kA*kT*kG) [compound 1074578],YAP1 (% UTC),"Yap1 mRNA [1]; Table 32, Yap1 mRNA, percent of untreated control",8 % UTC
same,"Yap1 mRNA, % UTC",Yap1 mRNA [2]; 31.3 nM,66 % UTC
same,"Yap1 mRNA, % UTC",Yap1 mRNA [2]; 125.0 nM,30 % UTC
same,"Yap1 mRNA, % UTC",Yap1 mRNA [2]; 500.0 nM,18 % UTC
same,"Yap1 mRNA, % UTC",Yap1 mRNA [2]; 2000.00 nM,11 % UTC
same,IC50,Yap1 mRNA [2],100 nM
1076017 (k[5mC]*kT*kA*dA*dT*dA*dG*dG*dA*dT*dG*dG*dA*kT*kT*k[5mC]; antisense) [compound 1076017],YAP1 (% UTC),Yap1 mRNA [1]; [3],5 % UTC
same,"Yap1 mRNA, % UTC",Yap1 mRNA [2]; 31.3 nM,59 % UTC
same,"Yap1 mRNA, % UTC",Yap1 mRNA [2]; 125.0 nM,25 % UTC
same,"Yap1 mRNA, % UTC",Yap1 mRNA [2]; 500.0 nM,9 % UTC
same,"Yap1 mRNA, % UTC",Yap1 mRNA [2]; 2000.00 nM,5 % UTC
same,IC50,Yap1 mRNA [2],30 nM
1075089 (k[5mC]*kA*kT*dT*dT*dA*dT*dA*dG*dT*d[5mC]*dA*dG*kG*kT*kT; antisense) [compound 1075089],YAP1 (% UTC),Yap1 mRNA [1]; [3],2 % UTC
same,"Yap1 mRNA, % UTC",Yap1 mRNA [2]; 31.3 nM,45 % UTC
same,"Yap1 mRNA, % UTC",Yap1 mRNA [2]; 125.0 nM,9 % UTC
same,"Yap1 mRNA, % UTC",Yap1 mRNA [2]; 500.0 nM,3 % UTC
same,"Yap1 mRNA, % UTC",Yap1 mRNA [2]; 2000.00 nM,3 % UTC
same,IC50,Yap1 mRNA [2],< 20 nM
1074579 (DNA k[5mC]*k[5mC]*kA*d[5mC]*dT*dA*dT*dA*dA*dA*dG*d[5mC]*dT*kT*kA*kT) [compound 1074579],YAP1 (% UTC),Yap1 mRNA [1]; [4],6 % UTC
same,"Yap1 mRNA, % UTC",Yap1 mRNA [2]; 31.3 nM,54 % UTC
same,"Yap1 mRNA, % UTC",Yap1 mRNA [2]; 125.0 nM,22 % UTC
same,"Yap1 mRNA, % UTC",Yap1 mRNA [2]; 500.0 nM,8 % UTC
same,"Yap1 mRNA, % UTC",Yap1 mRNA [2]; 2000.00 nM,5 % UTC
same,IC50,Yap1 mRNA [2],< 20 nM
